Structures are written as SMILES.

The text below walks through data of ChEMBL document CHEMBL1138279, “Platelet-activating factor (PAF) receptor binding antagonists from Alpinia officinarum” (Bioorg Med Chem Lett, 2007).

The nature of the experiment: Displacement of [3H]PAF from rabbit PAF receptor. Further details: species or system Oryctolagus cuniculus. On the technique in general: Loss of bound radioactivity is the signal in a displacement assay; it reports binding, not function.
The term IC50 denotes the concentration needed to halve the response being measured. The low end stands for greater potency in that assay, the high end for weaker potency in that assay. `O=C(/C=C/CCc1ccccc1)CCc1ccccc1`: the IC50 is 5000 nM.

Turning to `COC(CCc1ccccc1)CC(=O)CCc1ccccc1` (stereo not drawn), the IC50 was 1600 nM.

As for `O=C(/C=C/C(O)Cc1ccccc1)CCc1ccccc1` (stereo not drawn), the IC50 turned out to be 1300 nM.
